Drawing on PubChem BioAssay (NCI), this text covers GI50 and TGI for eight compounds.

Among the test systems are MOLT-4 leukemia; 786-0 renal; ACHN renal; M14 melanoma; NCI/ADR-RES ovarian; IGROV1 ovarian; RPMI-8226 leukemia; SN12C renal; T-47D breast; SK-MEL-2 melanoma.
What all share (assay): NCI anticancer screen, dose series, 48 h

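The compound was tested at five concentrations on cells cultured in 96-well plates, with a 48-hour exposure period. GI50: concentration for 50% inhibition of growth. TGI marks complete inhibition of growth.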

Consider `CC12C=CC(C)(O1)C1C2c2ccccc2S1(=O)=O` (stereo unspecified), for which the GI50 is 62.7 µM in the assay on MOLT-4 leukemia; more than 100 µM in the assay on 786-0 renal; 69.2 µM in the assay with ACHN renal; 25 µM in the assay with M14 melanoma; more than 100 µM in the assay on NCI/ADR-RES ovarian; 25.1 µM with IGROV1 ovarian. The figures for the GI50 in the assay on RPMI-8226 leukemia, in the assay with SN12C renal and in the assay on T-47D breast were 44.3 µM, 64.4 µM and 95.5 µM, respectively. For the same compound, the TGI in the assay on MOLT-4 leukemia was more than 100 µM; with 786-0 renal, more than 100 µM; in the assay on ACHN renal, more than 100 µM; with M14 melanoma, more than 100 µM; in the assay with NCI/ADR-RES ovarian, more than 100 µM; in the assay with IGROV1 ovarian, 95.3 µM. Further, the TGI in the assay with RPMI-8226 leukemia, with SN12C renal and in the assay with T-47D breast was more than 100 µM in each case.

With `COC(=O)[C@]12CC[C@@H](C)[C@H](C)[C@@H]1C1=CC[C@@H]3[C@@]4(C)C(c5ncon5)=C[C@@](C)(CO)C4=CC[C@@]3(C)[C@]1(C)CC2`, the GI50 in the assay on MOLT-4 leukemia is 1.69 µM; with 786-0 renal it was 2.91 µM; in the assay on ACHN renal it was 1.9 µM; with M14 melanoma it was 2.07 µM; with NCI/ADR-RES ovarian, 2.28 µM; in the assay on IGROV1 ovarian, 2.47 µM. For the same compound, the GI50 was 2.05 µM with SK-MEL-2 melanoma, 2.32 µM with RPMI-8226 leukemia, 3.05 µM in the assay with SN12C renal and 1.99 µM with T-47D breast. Also, the TGI in the assay on MOLT-4 leukemia worked out at 3.92 µM; with 786-0 renal it was 8.58 µM; with ACHN renal, 3.56 µM; with M14 melanoma, 4.88 µM; in the assay on NCI/ADR-RES ovarian, 5.72 µM; in the assay on IGROV1 ovarian, 7.19 µM. Moreover, the TGI in the assay on SK-MEL-2 melanoma was determined as 4.22 µM; in the assay with RPMI-8226 leukemia, 6.33 µM; in the assay on SN12C renal, 10.6 µM; in the assay on T-47D breast, 5.86 µM.

Take `COC(=O)c1[nH]nc(-c2ccccc2)c1N1CCCCC1`: the GI50 is 62.6 µM in the assay on MOLT-4 leukemia; 21.1 µM with 786-0 renal; 25.6 µM with ACHN renal; 57 µM with M14 melanoma; 22.8 µM with NCI/ADR-RES ovarian; 60.8 µM in the assay on IGROV1 ovarian. Further, the GI50 was more than 100 µM in the assay on SK-MEL-2 melanoma, 38 µM in the assay with RPMI-8226 leukemia, 15.5 µM in the assay on SN12C renal and 27 µM in the assay with T-47D breast. For the same compound, the TGI in the assay with MOLT-4 leukemia is more than 100 µM; in the assay with 786-0 renal, 57.9 µM; in the assay with ACHN renal, 62.1 µM; with M14 melanoma, more than 100 µM; in the assay on NCI/ADR-RES ovarian, 58.5 µM; in the assay on IGROV1 ovarian, more than 100 µM. Moreover, the TGI with SK-MEL-2 melanoma was more than 100 µM; in the assay with RPMI-8226 leukemia, more than 100 µM; with SN12C renal, 41.5 µM; in the assay on T-47D breast, 72.4 µM.

As for `O=C1C[C@@H](c2ccccc2)NCCCCN(O)CCCN1`, the TGI in the assay with MOLT-4 leukemia, in the assay with 786-0 renal, in the assay with ACHN renal, in the assay with M14 melanoma, in the assay with NCI/ADR-RES ovarian and in the assay with IGROV1 ovarian was more than 100 µM in each case. Further, the TGI in the assay on SK-MEL-2 melanoma, in the assay with RPMI-8226 leukemia, with SN12C renal and with T-47D breast was more than 100 µM in each case.

In the case of `COc1cc2c(cc1OCCCCCCNC(=O)c1cc3ccccc3[nH]1)N=CC1CCCN1C2=O` (stereo unspecified), the GI50 is 31.6 µM in the assay on MOLT-4 leukemia; more than 100 µM with 786-0 renal; 35.2 µM with ACHN renal; 65.5 µM in the assay with M14 melanoma; 31.7 µM with NCI/ADR-RES ovarian; 17.4 µM with IGROV1 ovarian. For the same compound, the GI50 in the assay on RPMI-8226 leukemia is 18.7 µM; in the assay with SN12C renal it was 65 µM; with T-47D breast, 15.4 µM. Moreover, the TGI in the assay with MOLT-4 leukemia, in the assay on 786-0 renal, in the assay on ACHN renal, with M14 melanoma, in the assay with NCI/ADR-RES ovarian and in the assay on IGROV1 ovarian was more than 100 µM each time. Besides, the results for the TGI in the assay with RPMI-8226 leukemia, in the assay on SN12C renal and in the assay with T-47D breast were 77.6 µM, more than 100 µM and more than 100 µM, respectively.

As to `CC(C)[C@@H](C(=O)O[C@@H]1/C=C/C(=O)O[C@@H](C)CCC/C=C/[C@@H]2C[C@H](O)C[C@H]21)[N+](C)(C)C`, the GI50 in the assay with MOLT-4 leukemia, in the assay with 786-0 renal, with ACHN renal, with M14 melanoma, in the assay on NCI/ADR-RES ovarian and with IGROV1 ovarian was more than 100 µM throughout. Further, the GI50 in the assay on SK-MEL-2 melanoma, with RPMI-8226 leukemia, with SN12C renal and in the assay with T-47D breast was more than 100 µM throughout. Further, the TGI in the assay with MOLT-4 leukemia, in the assay with 786-0 renal, in the assay on ACHN renal, in the assay on M14 melanoma, in the assay with NCI/ADR-RES ovarian and in the assay on IGROV1 ovarian was more than 100 µM in each case. The TGI with SK-MEL-2 melanoma, in the assay on RPMI-8226 leukemia, in the assay on SN12C renal and in the assay with T-47D breast was more than 100 µM in each case.

On to `c1ccc(-c2n(Cc3ccc4ccccc4n3)c3ccccc3[n+]2Cc2ccc3ccccc3n2)cc1`, for which the GI50 is 0.443 µM with MOLT-4 leukemia; 1.03 µM in the assay on 786-0 renal; 1.41 µM with ACHN renal; 0.289 µM with M14 melanoma; 13.6 µM in the assay with NCI/ADR-RES ovarian; 0.244 µM with IGROV1 ovarian. The GI50 with SK-MEL-2 melanoma was 0.298 µM; in the assay on RPMI-8226 leukemia, 0.0936 µM; in the assay on SN12C renal it was 0.302 µM; in the assay with T-47D breast it was 0.193 µM. Also, the TGI in the assay on MOLT-4 leukemia was 2.09 µM; in the assay with 786-0 renal it was 2.33 µM; in the assay on ACHN renal, 3.01 µM; in the assay with M14 melanoma, 1.43 µM; in the assay with NCI/ADR-RES ovarian, more than 55.6 µM; with IGROV1 ovarian, 1.28 µM. Also, the TGI in the assay on SK-MEL-2 melanoma worked out at 1.11 µM; with RPMI-8226 leukemia, 0.845 µM; in the assay on SN12C renal it was 1.22 µM; with T-47D breast it was 1.96 µM.

For `O=C(Cc1ccccc1)Nc1nnc(CCSCCc2nnc(NC(=O)Cc3ccccc3)s2)s1`, the GI50 with MOLT-4 leukemia is 23.8 µM; in the assay with 786-0 renal, 6.11 µM; with ACHN renal, more than 100 µM; with M14 melanoma it was 12.6 µM; with NCI/ADR-RES ovarian it was more than 100 µM; in the assay with IGROV1 ovarian, 25.9 µM. Also, the GI50 is 16.5 µM in the assay on SK-MEL-2 melanoma, 5.67 µM with RPMI-8226 leukemia, 5.34 µM with SN12C renal and 8.13 µM in the assay on T-47D breast. The TGI was more than 100 µM with MOLT-4 leukemia; 54.6 µM in the assay on 786-0 renal; more than 100 µM in the assay on ACHN renal; more than 100 µM in the assay with M14 melanoma; more than 100 µM in the assay with NCI/ADR-RES ovarian; more than 100 µM in the assay with IGROV1 ovarian. The TGI with SK-MEL-2 melanoma was more than 100 µM; in the assay with RPMI-8226 leukemia, more than 100 µM; with SN12C renal, 44.7 µM; in the assay with T-47D breast, more than 100 µM.
